Consider eleven compounds from ChEMBL document CHEMBL5303304, “EUbOPEN Chemogenomics Library - IncuCyte” (2023).

Structures are written as SMILES.

Holding throughout (assay type): toxicity, cell-based
Data set [1] concerns HEK-293T. Briefly: Incucyte cell viability with HEK293T. Conditions: human, 10 µM, compound concentration 10 uM.
In data set [2] the test system is Fibroblast. Briefly: Incucyte cell viability with human fibroblast. Conditions: 10 µM, compound concentration 10 uM.
Data set [3] has as its system U2OS. Briefly: Incucyte cell viability with U2OS. The settings on record: human, 10 µM, compound concentration 10 uM.
Note: unitless GR value; below 1 slowed growth and below 0 cell loss.

For the compound `CN1CCCN(C(=O)c2cccc(-c3ccc(/C=C4/C(=O)Nc5ccc(Cl)cc54)o3)c2)CC1`, the “Growth Rate” value in data set [1] (0 h, replicate number 2) is given as -1; in data set [1] (6 h, replicate number 1) it was -0.69; in data set [1] (6 h, replicate number 2), -0.67; in data set [1] (12 h, replicate number 1), -0.6; in data set [1] (12 h, replicate number 2) it was -0.63; in data set [1] (18 h, replicate number 1), -0.51. Moreover, the “Growth Rate” value is -0.49 in data set [1] (18 h, replicate number 2); -0.45 in data set [1] (24 h, replicate number 1); -0.47 in data set [1] (24 h, replicate number 2); -0.99 in data set [2] (6 h, replicate number 1); -0.94 in data set [2] (6 h, replicate number 2); -0.83 in data set [2] (12 h, replicate number 1). Also, the “Growth Rate” value in data set [2] (12 h, replicate number 2) is -0.82; in data set [2] (18 h, replicate number 1), -0.74; in data set [2] (18 h, replicate number 2), -0.72; in data set [2] (24 h, replicate number 1) it was -0.67; in data set [2] (24 h, replicate number 2) it was -0.63; in data set [3] (0 h, replicate number 2), -0.78. In addition, the “Growth Rate” value in data set [3] (6 h, replicate number 1) was -0.67; in data set [3] (6 h, replicate number 2) it was -0.6; in data set [3] (12 h, replicate number 1) it was -0.7; in data set [3] (12 h, replicate number 2), -0.54; in data set [3] (18 h, replicate number 1), -0.53; in data set [3] (18 h, replicate number 2) it was -0.44. For the same compound, the “Growth Rate” value in data set [3] (24 h, replicate number 1) is recorded as -0.48; in data set [3] (24 h, replicate number 2) it was -0.42.
In the case of `COc1cc(Nc2ccc([N+](=O)[O-])cc2C(=O)O)cc2ccccc12`, the “Growth Rate” value is 0.41 in data set [1] (0 h, replicate number 1); 0.13 in data set [1] (0 h, replicate number 2); -0.6 in data set [2] (6 h, replicate number 2); 0.4 in data set [2] (12 h, replicate number 2); -0.31 in data set [2] (18 h, replicate number 1); 0.45 in data set [2] (18 h, replicate number 2). The “Growth Rate” value in data set [2] (24 h, replicate number 1) is 0.68; in data set [2] (24 h, replicate number 2) it was 0.63; in data set [3] (0 h, replicate number 1), 0.77; in data set [3] (0 h, replicate number 2), -0.1; in data set [3] (24 h, replicate number 1), 0.98.
With `CN(C)C/C=C/C(=O)Nc1cc2c(Nc3ccc(F)c(Cl)c3)ncnc2cc1OC[C@@H]1CCCO1`, the “Growth Rate” value is given as -0.57 in data set [1] (6 h, replicate number 1); -0.55 in data set [1] (6 h, replicate number 2); -0.36 in data set [1] (12 h, replicate number 1); -0.34 in data set [1] (12 h, replicate number 2); -0.27 in data set [1] (18 h, replicate number 1); -0.29 in data set [1] (18 h, replicate number 2). For the same compound, the “Growth Rate” value in data set [1] (24 h, replicate number 1) is recorded as -0.2; in data set [1] (24 h, replicate number 2), -0.22; in data set [2] (0 h, replicate number 2) it was 0.77; in data set [2] (6 h, replicate number 1), -0.42; in data set [2] (6 h, replicate number 2), -0.39; in data set [2] (12 h, replicate number 1), -0.37. The “Growth Rate” value in data set [2] (12 h, replicate number 2) was -0.36; in data set [2] (18 h, replicate number 1), -0.32; in data set [2] (18 h, replicate number 2), -0.29; in data set [2] (24 h, replicate number 1), -0.26; in data set [2] (24 h, replicate number 2) it was -0.29; in data set [3] (0 h, replicate number 2), 0.7. In addition, the “Growth Rate” value in data set [3] (6 h, replicate number 1) is recorded as -0.2; in data set [3] (6 h, replicate number 2), -0.14; in data set [3] (12 h, replicate number 1) it was -0.23; in data set [3] (12 h, replicate number 2), -0.07; in data set [3] (18 h, replicate number 1) it was -0.23; in data set [3] (18 h, replicate number 2), -0.08. In addition, the “Growth Rate” value in data set [3] (24 h, replicate number 1) is listed as -0.17; in data set [3] (24 h, replicate number 2), -0.19.
As for `c1cnc2cc3c(cc2n1)[C@@H]1CNC[C@H]3C1` [VARENICLINE], the “Growth Rate” value in data set [1] (0 h, replicate number 2) is given as 0.72; in data set [1] (6 h, replicate number 1), 0.65; in data set [1] (6 h, replicate number 2), 0.78; in data set [1] (12 h, replicate number 2), 0.87; in data set [1] (18 h, replicate number 2) it was 0.95; in data set [1] (24 h, replicate number 1), 0.99. Besides, the “Growth Rate” value in data set [2] (0 h, replicate number 1) is 0.28; in data set [2] (18 h, replicate number 1), -0.31; in data set [3] (0 h, replicate number 1), 0.97; in data set [3] (6 h, replicate number 2) it was 0.65; in data set [3] (12 h, replicate number 1), 0.98; in data set [3] (12 h, replicate number 2), 0.82. Besides, the “Growth Rate” value in data set [3] (18 h, replicate number 1) stood at 0.91; in data set [3] (18 h, replicate number 2), 1; in data set [3] (24 h, replicate number 1) it was 0.92; in data set [3] (24 h, replicate number 2), 0.9.
Consider `COCCNc1cc(NC(=O)N2CCCc3cc(CN4CCN(C)CC4=O)c(C=O)nc32)ncc1C#N` [FGF401], for which the “Growth Rate” value in data set [1] (0 h, replicate number 2) was found to be 0.45; in data set [1] (6 h, replicate number 1) it was 0.68; in data set [1] (6 h, replicate number 2), 0.95; in data set [1] (12 h, replicate number 2) it was 0.82; in data set [1] (18 h, replicate number 1), 0.87; in data set [1] (18 h, replicate number 2) it was 0.98. Moreover, the “Growth Rate” value is reported as 0.95 in data set [2] (0 h, replicate number 2); 0.08 in data set [2] (6 h, replicate number 1); -1 in data set [2] (12 h, replicate number 1); 0.24 in data set [2] (18 h, replicate number 1); 0.74 in data set [2] (24 h, replicate number 1); -0.62 in data set [3] (0 h, replicate number 1). The “Growth Rate” value amounted to 0.86 in data set [3] (6 h, replicate number 1); 0.86 in data set [3] (12 h, replicate number 1); 0.93 in data set [3] (18 h, replicate number 1); 0.98 in data set [3] (24 h, replicate number 1).
Turning to `COc1ccc(-c2coc3cc(O)cc(O)c3c2=O)cc1` [BIOCHANIN], the “Growth Rate” value in data set [1] (0 h, replicate number 2) is listed as 0.93; in data set [1] (6 h, replicate number 1), 0.75; in data set [1] (18 h, replicate number 2) it was 1; in data set [2] (0 h, replicate number 1), 0.87; in data set [2] (0 h, replicate number 2), -0.65; in data set [2] (6 h, replicate number 2) it was 0.58. Also, the “Growth Rate” value in data set [2] (12 h, replicate number 1) is -0.08; in data set [2] (12 h, replicate number 2) it was 0.69; in data set [2] (18 h, replicate number 1), 0.21; in data set [2] (24 h, replicate number 2), 0.94; in data set [3] (0 h, replicate number 1), 0.85; in data set [3] (0 h, replicate number 2) it was -0.91. Moreover, the “Growth Rate” value in data set [3] (6 h, replicate number 1) is on record as 1; in data set [3] (12 h, replicate number 2), 0.77; in data set [3] (24 h, replicate number 1), 0.95; in data set [3] (24 h, replicate number 2), 0.93.
For `COc1ccc(NC(=O)[C@@H]2C[C@H](C)CC[C@H]2C(C)C)cc1` [ACOLTREMON], the “Growth Rate” value in data set [1] (0 h, replicate number 2) is 0.02; in data set [2] (0 h, replicate number 1), 0.31; in data set [2] (6 h, replicate number 2), -0.34; in data set [2] (12 h, replicate number 2) it was 0.74; in data set [2] (18 h, replicate number 1) it was 0.98; in data set [2] (18 h, replicate number 2), 0.61. The “Growth Rate” value in data set [2] (24 h, replicate number 2) is 0.67; in data set [3] (0 h, replicate number 2) it was -0.89; in data set [3] (6 h, replicate number 1) it was -0.13; in data set [3] (12 h, replicate number 1), 0.93; in data set [3] (24 h, replicate number 1), 0.94.
For `C[C@H](CCC(=O)O)[C@H]1CC[C@H]2[C@@H]3[C@H](O)C[C@@H]4C[C@H](O)CC[C@]4(C)[C@H]3C[C@H](O)[C@]12C` [CHOLIC ACID], the “Growth Rate” value in data set [1] (0 h, replicate number 1) was 0.14; in data set [1] (0 h, replicate number 2) it was 0.01; in data set [1] (24 h, replicate number 2), 1; in data set [2] (0 h, replicate number 1) it was 0.6; in data set [2] (6 h, replicate number 1), -0.41; in data set [2] (6 h, replicate number 2), 0.33. The “Growth Rate” value in data set [2] (12 h, replicate number 1) was 0.82; in data set [2] (12 h, replicate number 2), 0.56; in data set [2] (18 h, replicate number 1), 0.38; in data set [2] (18 h, replicate number 2), 0.65; in data set [2] (24 h, replicate number 1), 0.81; in data set [2] (24 h, replicate number 2) it was 0.97. Further, the “Growth Rate” value in data set [3] (0 h, replicate number 2) came out at 0.9; in data set [3] (6 h, replicate number 2) it was 0.92; in data set [3] (12 h, replicate number 2), 0.92; in data set [3] (18 h, replicate number 1), 0.98; in data set [3] (24 h, replicate number 2), 0.97.
On to `Cn1c(C(=O)N[C@@H](CO)c2ccc(C(=O)O)cc2)cc2cc(Cl)ccc21`, for which the “Growth Rate” value is recorded as 0.28 in data set [1] (0 h, replicate number 2); 0.78 in data set [1] (6 h, replicate number 1); 0.96 in data set [1] (24 h, replicate number 1); 0.3 in data set [2] (0 h, replicate number 2); -0.6 in data set [2] (6 h, replicate number 2); 0.49 in data set [2] (12 h, replicate number 2). In addition, the “Growth Rate” value in data set [2] (18 h, replicate number 2) was 0.69; in data set [2] (24 h, replicate number 1), 1; in data set [2] (24 h, replicate number 2), 0.68; in data set [3] (0 h, replicate number 1), 0.76; in data set [3] (6 h, replicate number 1) it was 0.58; in data set [3] (24 h, replicate number 1) it was 0.92.
Consider `Cc1nc2c(cc1F)c(-c1nnc3c(n1)NC(=O)C3(C)C)nn2Cc1cccc(F)c1F`, for which the “Growth Rate” value is reported as 0.61 in data set [1] (0 h, replicate number 1); 0.48 in data set [1] (0 h, replicate number 2); 0.97 in data set [1] (6 h, replicate number 1); 0.57 in data set [1] (6 h, replicate number 2); 0.95 in data set [1] (12 h, replicate number 1); 0.74 in data set [1] (12 h, replicate number 2). For the same compound, the “Growth Rate” value in data set [1] (18 h, replicate number 1) is recorded as 0.75; in data set [1] (18 h, replicate number 2), 0.8; in data set [1] (24 h, replicate number 1), 0.79; in data set [1] (24 h, replicate number 2), 0.91; in data set [2] (0 h, replicate number 1), -1; in data set [2] (0 h, replicate number 2) it was 0.67. The “Growth Rate” value in data set [2] (6 h, replicate number 1) was 0.59; in data set [2] (18 h, replicate number 1) it was 0.85; in data set [2] (24 h, replicate number 1), 0.94; in data set [3] (0 h, replicate number 2) it was 0.99; in data set [3] (6 h, replicate number 1), 0.9; in data set [3] (6 h, replicate number 2) it was 0.58. Further, the “Growth Rate” value in data set [3] (12 h, replicate number 2) is 0.84; in data set [3] (18 h, replicate number 2), 0.95.
Turning to `CCCN1CCC(C#N)(NC(=O)[C@H](CC(C)(C)C)NC(=O)N2CCOCC2)CC1`, the “Growth Rate” value in data set [1] (0 h, replicate number 1) is 0.04; in data set [2] (0 h, replicate number 2), -0.89; in data set [2] (6 h, replicate number 1) it was 0.97; in data set [2] (12 h, replicate number 1) it was 0.82; in data set [2] (12 h, replicate number 2), 0.45; in data set [2] (18 h, replicate number 1), 0.88. The “Growth Rate” value in data set [2] (24 h, replicate number 1) is on record as 0.83; in data set [3] (0 h, replicate number 2), 0.82; in data set [3] (6 h, replicate number 1), 0.96.
